Data: patent US7585859B2, “PDE4B inhibitors and uses therefor” (Plexxikon, Inc., priority 2004, dated 2009)

What follows are molecules tested against T1, PDE4D (Homo sapiens, UniProt Q08499) (assay: PDE4 IC50 determination by Scintillation Proximity Assay, PDE4D). Details: Table 1B, Formula I compounds; read-out: IC50 PDE4D.
T1 construct: PDE4D: The catalytic domain of human PDE4B from S3 16-V692; His6 (N); thrombin cleavage site (N); made in house; host or cells: E. coli
T1 sequence (Q08499 380-756): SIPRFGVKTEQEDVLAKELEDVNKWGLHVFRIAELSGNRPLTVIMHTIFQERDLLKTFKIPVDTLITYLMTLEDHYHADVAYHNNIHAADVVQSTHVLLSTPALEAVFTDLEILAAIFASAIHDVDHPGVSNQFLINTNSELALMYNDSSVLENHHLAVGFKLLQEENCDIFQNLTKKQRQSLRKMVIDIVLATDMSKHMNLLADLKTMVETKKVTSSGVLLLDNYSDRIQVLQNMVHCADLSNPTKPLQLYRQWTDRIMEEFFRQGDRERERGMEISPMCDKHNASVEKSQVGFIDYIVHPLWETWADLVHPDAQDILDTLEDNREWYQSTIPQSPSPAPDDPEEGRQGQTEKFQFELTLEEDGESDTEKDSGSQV
Format: biochemical
Protocol: (§1) IC50s were determined by Scintillation Proximity Assay (SPA). The principle of the assay is based on the fact that cAMP, the PDE4 substrate, binds weakly to Yittrium Silicate SPA beads, whereas AMP, the product of PDE4 hydrolysis binds strongly. Thus, the extent of PDE4 hydrolysis of a sample of [^3H]cAMP can be measured because only the
(§2) [^3H]AMP produced by PDE4 hydrolysis will bind to the SPA beads and produce a scintillation signal.
(§3) PDE4 enzymes used for IC50 assays were:
(§4) Enzyme was stored in 50% glycerol at −20°.
(§5) In addition to the compound dilutions, each assay plate contained control wells with 1 μl of DMSO (to define 0% enzyme inhibition) or 1 μl of 200 μM roflumilast (to define 100% enzyme inhibition). […] Next, 10 μl of PDE4 enzyme in assay buffer was added and the plates were shaken for 30 s. at 1000 rpm to start the cAMP hydrolysis reaction. The concentrations of enzyme used were: PDE4B, 80 ng/ml; PDE4D, 4 ng/ml; PDE4B2, 2.5 μl of 50% glycerol stock/ml; PDE4D5 0.083 μl of 50% glycerol stock/ml. Assay plates were covered and incubated for 30 min. at 30°. […] The assay plates were covered with clear plastic film, centrifuged for 1 min. at 1000 RPM to settle the SPA beads, and counted using a Wallac TriLux scintillation counter. IC50's were calculated from the raw assay data by non-linear regression curve fitting using the Assay Explorer software package from MDL.
For `CC1C2=C(CC(C)(C)CC2=O)Nc2sc(C(N)=O)c(N)c21` (centres unmarked) [Compound 1-4, 3-Amino-4,7,7-trimethyl-5-oxo-4,5,6,7,8,9-hexahydro-thieno[2,3-b]quinoline-2-carboxylic acid amide], the IC50 was over 10 µM. `Cc1cc(=O)[nH]c2sc(C(=O)c3ccc(Cl)c(Cl)c3)c(N)c12` [Compound 1-27, 3-Amino-2-(3,4-dichloro-benzoyl)-4-methyl-7H-thioeno[2,3-b]pyridin-6-one] gave an IC50 of over 10 µM.

Same assay, conditions: first part of Table 2B (2-1 to 2-22); read-out: IC 50 vs. indicated assay PDE4D
`Nc1nc(Nc2ccc(Oc3ccccc3)cc2)sc1C(=O)c1cc(-c2ccccc2)no1` [Compound 2-8, [4-Amino-2-(4-phenoxy-phenylamino)-thiazol-5-yl]-(3-phenyl-isoxazol-5-yl)-methanone] showed an IC50 of over 10 µM.

Same assay, conditions: second part of Table 2B (2-23 to 2-103), column 5; column is PDE4D in first part; read-out: IC 50 vs. indicated assay h TNFα
`Nc1nc(Nc2ccc(Oc3ccccc3)cc2)sc1C(=O)c1ccc(Oc2ccccc2)cc1` [Compound 2-47, [4-Amino-2-(4-phenoxy-phenylamino)-thiazol-5-yl]-(4-phenoxy-phenyl)-methanone] was tested, and the IC50 was over 10 µM. In the case of `Nc1nc(Nc2ccc(Oc3ccccc3)cc2)sc1C(=O)c1ccc(OC(F)F)cc1` [Compound 2-61, [4-Amino-2-(4-phenoxy-phenylamino)-thiazol-5-yl]-(4-difluoromethoxy-phenyl)-methanone], the IC50 is reported as over 10 µM. With `COc1cccc(C(=O)c2sc(Nc3cccc(C#N)c3)nc2N)c1` [Compound 2-64, 3-[4-Amino-5-(3-methoxy-benzoyl)-thiazol-2-ylamino]-benzonitrile] the IC50 was over 10 µM.

The molecules below were run against T2, PDE4B: The catalytic domain of human PDE4B from S152-S528 (Homo sapiens, UniProt Q07343) (assay: PDE4 IC50 determination by Scintillation Proximity Assay, PDE4B). Details: Table 1B, Formula I compounds; read-out: IC50 PDE4B.
T2 construct: His6 (N); thrombin cleavage site (N); made in house; host or cells: E. coli
T2 sequence (Q07343 with tags, fused parts or gaps): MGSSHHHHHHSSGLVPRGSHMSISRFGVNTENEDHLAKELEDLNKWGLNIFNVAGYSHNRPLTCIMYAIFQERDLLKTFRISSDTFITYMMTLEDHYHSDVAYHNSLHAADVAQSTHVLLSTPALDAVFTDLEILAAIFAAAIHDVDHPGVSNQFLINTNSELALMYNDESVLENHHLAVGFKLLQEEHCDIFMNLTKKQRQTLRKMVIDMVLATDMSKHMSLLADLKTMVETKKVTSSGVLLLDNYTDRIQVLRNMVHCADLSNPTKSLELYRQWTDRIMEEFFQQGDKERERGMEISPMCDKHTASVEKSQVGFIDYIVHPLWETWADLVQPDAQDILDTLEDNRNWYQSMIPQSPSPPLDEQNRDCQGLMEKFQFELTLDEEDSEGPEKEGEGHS
Format: biochemical
Protocol: as §1, §2, §3, §4, §5
“3-Amino-2-(4-ethyl- phenylcarbamoyl)-6-oxo- 6,7-dihydro- thieno[2.3-b]pyridine- 5-carboxylic acid [Compound 1-6]” showed an IC50 of over 10 µM. `Cc1cc(=O)[nH]c2sc(C(=O)c3ccc(Br)cc3)c(N)c12` [Compound 1-3, 3-Amino-2-(4-bromo-benzoyl)-4-methyl-7H-thieno[2,3-b]pyridin-6-one] gave an IC50 of over 10 µM. `CC1C2=C(CC(C)(C)CC2=O)Nc2sc(C(N)=O)c(N)c21` (centres unmarked) [Compound 1-4, 3-Amino-4,7,7-trimethyl-5-oxo-4,5,6,7,8,9-hexahydro-thieno[2,3-b]quinoline-2-carboxylic acid amide] showed an IC50 of over 10 µM. With `CC(=O)C1=C(C)Nc2sc(C(N)=O)c(N)c2C1c1ccc(Cl)cc1` (centres unmarked) [Compound 1-5, 5-Acetyl-3-amino-4-(4-chloro-phenyl)-6-methyl-4,7-dihydro-thieno[2,3-b]pyridine-2-carboxylic acid amide] the IC50 was under 10 µM. Molecule `CC(=O)C1=C(C)Nc2sc(C(N)=O)c(N)c2C1c1ccco1` (centres unmarked) [Compound 1-7, 5-Acetyl-3-amino-4-furan-2-yl-6-methyl-4,7-dihydro-thieno[2,3-b]pyridine-2-carboxylic acid amide] has an IC50 of over 10 µM. Molecule `CCc1ccc(C(=O)c2sc3c(c2N)C(c2cccnc2)C(C(C)=O)=C(C)N3)cc1` (centres unmarked) [Compound 1-8, 1-[3-Amino-2-(4-ethyl-benzoyl)-6-methyl-4-pyridin-3-yl-4,7-dihydro-thieno[2,3-b]pyridin-5-yl]-ethanone] has an IC50 of under 10 µM. `CC(=O)C1=C(C)Nc2sc(C(=O)c3cccc([N+](=O)[O-])c3)c(N)c2C1c1cccnc1` (centres unmarked) [Compound 1-9, 1-[3-Amino-6-methyl-2-(3-nitro-benzoyl)-4-pyridin-3-yl-4,7-dihydro-thieno[2,3-b]pyridin-5-yl]-ethanone] showed an IC50 of under 10 µM. `NC(=O)c1sc2[nH]c(=O)c(C(=O)O)cc2c1N` [Compound 1-10, 3-Amino-2-carbamoyl-6-oxo-6,7-diliydro-thieno[2,3-b]pyridine-5-carboxylic acid] was tested, and the IC50 was over 10 µM. Work on `Cc1ccc(C2CC(=O)Nc3sc(C(N)=O)c(N)c32)cc1` (centres unmarked) [Compound 1-11, 3-Amino-6-oxo-4-p-tolyl-4,5,6,7-tetrahydro-thieno[2,3-b]pyridine-2-carboxylic acid amide] yielded an IC50 of over 10 µM. Work on `CCNc1sc(C(=O)OC)c(N)c1C#N` [Compound 1-13, 3-Amino-4-cyano-5-ethylamino-thiophene-2-carboxylic acid methyl ester] yielded an IC50 of under 10 µM. Molecule `NC(=O)c1sc(Nc2ccccc2)c(-c2nc3ccccc3[nH]2)c1N` [Compound 1-14, 3-Amino-4-(1H-benzoimidazol-2-yl)-5-phenylamino-thiophene-2-carboxylic acid amide] has an IC50 of under 10 µM. `COc1ccc(C(=O)c2sc(Nc3ccc(Oc4ccccc4)cc3)c(C#N)c2N)cc1` [Compound 1-174] showed an IC50 of under 10 µM. Work on `N#Cc1c(NC2CCCC2)sc(C(=O)c2cc(C(=O)N3CCOCC3)no2)c1N` [Compound 1-175, 4-Amino-2-cyclopentylamino-5-[3-(morpholine-4-carbonyl)-isoxazole-5-carbonyl]-thiophene-3-carbonitrile] yielded an IC50 of under 10 µM. Work on `N#Cc1c(NC2CCCC2)sc(C(=O)c2ccc(-c3ccccc3)cc2)c1N` [Compound 1-188, 4-Amino-5-(biphenyl-4-carbonyl)-2-cyclopentylamino-thiophene-3-carbonitrile] yielded an IC50 of under 10 µM. `N#Cc1c(Nc2ccccc2Cl)sc(C(=O)c2ccc(Oc3ccccc3)cc2)c1N` [Compound 1-194, 4-Amino-2-(2-chloro-phenylamino)-5-(4-phenoxy-benzoyl)-thiophene-3-carbonitrile] was tested, and the IC50 was under 10 µM.

Same assay, conditions: Table 3A, Formula III compounds; read-out: IC50 PDE4B
For `CSc1nccc(-c2ccc(S(=O)(=O)Nc3ccc(Br)c4cccnc34)s2)n1` [Compound 3-17, 5-(2-Methylsulfanyl-pyrimidin-4-yl)-thiophene-2-sulfonic acid (5-bromo-quinolin-8-yl)-amide], the IC50 was under 10 µM. `COc1ccc(NS(=O)(=O)c2ccc(-c3ccnc(SC)n3)s2)c2ncccc12` [Compound 3-18, 5-(2-Methylsulfanyl-pyrimidin-4-yl)-thiophene-2-sulfonic acid (5-methoxy-quinolin-8-yl)-amide] showed an IC50 of under 10 µM. For `CSc1ncc(-c2ccc(S(=O)(=O)N(C)c3cccc4cccnc34)s2)cn1` [Compound 3-19, 5-(2-Methylsulfanyl-pyrimidin-5-yl)-thiophene-2-sulfonic acid methyl-quinolin-8-yl-amide], the IC50 was under 10 µM. `O=S(=O)(Nc1ccc(Br)c2cccnc12)c1ccc(-c2cnco2)s1` [Compound 3-35, 5-Oxazol-5-yl-thiophene-2-sulfonic acid (5-bromo-quinolin-8-yl)-amide] was tested, and the IC50 was under 10 µM. In the case of `COc1ccc(NS(=O)(=O)c2ccc(-c3cnco3)s2)c2ncccc12` [Compound 3-36, 5-Oxazol-5-yl-thiophene-2-sulfonic acid (5-methoxy-quinolin-8-yl)-amide], the IC50 is reported as under 10 µM. `COc1cc(NS(=O)(=O)c2c(Cl)cccc2Cl)c2ncccc2c1` [Compound 3-50, 2,6-Dichloro-N-(6-methoxy-quinolin-8-yl)-benzenesulfonamide] gave an IC50 of over 10 µM. `O=S(=O)(Nc1cc(Br)cc2cccnc12)c1ccccc1` [Compound 3-59, N-(6-Bromo-quinolin-8-yl)-benzenesulfonamide] was tested, and the IC50 was over 10 µM. In the case of `COc1ccc(Br)cc1S(=O)(=O)Nc1cccc2cccnc12` [Compound 3-60, 5-Bromo-2-methoxy-N-quinolin-8-yl-benzenesulfonamide], the IC50 is reported as over 10 µM. `O=S(=O)(Nc1cccc2cccnc12)c1cccc(Nc2ccncn2)c1` [Compound 3-61, 3-(Pyrimidin-4-ylamino)-N-quinolin-8-yl-benzenesulfonamide] gave an IC50 of under 10 µM. With `CSc1nc(Nc2ccc(S(=O)(=O)Nc3cccc4cccnc34)cc2)c2ccccc2n1` [Compound 3-62, 4-(2-Methylsulfanyl-quinazolin-4-ylamino)-N-quinolin-8-yl-benzenesulfonamide] the IC50 was under 10 µM. In the case of `CSc1nc(Nc2cccc(S(=O)(=O)Nc3cccc4cccnc34)c2)c2ccccc2n1` [Compound 3-63, 3-(2-Methylsulfanyl-quinazolin-4-ylamino)-N-quinolin-8-yl-benzenesulfonamide], the IC50 is reported as under 10 µM. With `O=C(c1ccncc1)c1ccc(S(=O)(=O)Nc2cccc3cccnc23)cc1` [Compound 3-64, 4-(Pyridine-4-carbonyl)-N-quinolin-8-yl-benzenesulfonamide] the IC50 was under 10 µM. `O=S(=O)(Nc1cccc2cccnc12)c1ccc(N2CCOCC2)cc1` [Compound 3-65, 4-Morpholin-4-yl-N-quinolin-8-yl-benzenesulfonamide] showed an IC50 of under 10 µM. In the case of `Cc1nccc(-c2cccc(S(=O)(=O)Nc3ccc(Br)c4cccnc34)c2)n1` [Compound 3-67, N-(5-Bromo-quinolin-8-yl)-3-(2-methyl-pyrimidin-4-yl)-benzenesulfonamide], the IC50 is reported as over 10 µM. With `COc1ccc(NS(=O)(=O)c2cccc(-c3ccnc(C)n3)c2)c2ncccc12` [Compound 3-68, N-(5-Methoxy-quinolin-8-yl)-3-(2-methyl-pyrimidin-4-yl)-benzenesulfonamide] the IC50 was under 10 µM. `O=S(=O)(Nc1cccc2cccnc12)c1ccc(Oc2ccccc2)nc1` [Compound 3-69, 6-Phenoxy-pyridine-3-sulfonic acid quinolin-8-ylamide] gave an IC50 of over 10 µM.

Same assay, conditions: second part of Table 2B (2-23 to 2-103), column 3; column is PDE4B in first part; read-out: IC 50 vs. indicated assay h TNFα
`Nc1nc(Nc2c(F)cccc2F)sc1C(=O)c1ccccc1` [Compound 2-44, [4-Amino-2-(2,6-difluoro-phenylamino)-thiazol-5-yl]-phenyl-methanone] gave an IC50 of under 10 µM.
